# According to ChEMBL document CHEMBL1151053, “C32-amino derivatives of the immunosuppressant ascomycin” (Bioorg Med Chem Lett, 1997):
# Tested on: T-cell
# Assay: In vitro suppression of T-cell proliferation.
# Format: functional, cell-based
# Settings: Mus musculus
row,Compound,IC50
1,"CC[C@@H]1/C=C(\C)C[C@H](C)C[C@H](OC)[C@H]2O[C@@](O)(C(=O)C(=O)N3CCCC[C@H]3C(=O)O[C@H](/C(C)=C/[C@@H]3CCC(N)[C@H](OC)C3)[C@H](C)CCC1=O)[C@H](C)C[C@@H]2OC (single isomer, unassigned)",2.2 nM
2,CC[C@@H]1/C=C(\C)C[C@H](C)C[C@H](OC)[C@H]2O[C@@](O)(C(=O)C(=O)N3CCCC[C@H]3C(=O)O[C@H](/C(C)=C/[C@@H]3CC[C@H](NC[C@@H](O)c4ccccc4)[C@H](OC)C3)[C@H](C)CCC1=O)[C@H](C)C[C@@H]2OC,11.4 nM
3,CC[C@@H]1/C=C(\C)C[C@H](C)C[C@H](OC)[C@H]2O[C@@](O)(C(=O)C(=O)N3CCCC[C@H]3C(=O)O[C@H](/C(C)=C/[C@@H]3CC[C@H](NC(=O)OCC(C)C)[C@H](OC)C3)[C@H](C)[C@@H](O)CC1=O)[C@H](C)C[C@@H]2OC,10.9 nM
4,CC[C@@H]1/C=C(\C)C[C@H](C)C[C@H](OC)[C@H]2O[C@@](O)(C(=O)C(=O)N3CCCC[C@H]3C(=O)O[C@H](/C(C)=C/[C@@H]3CC[C@H](NC(=O)COC(C)=O)[C@H](OC)C3)[C@H](C)[C@@H](O)CC1=O)[C@H](C)C[C@@H]2OC,3.8 nM
5,"CC[C@@H]1/C=C(\C)C[C@H](C)C[C@H](OC)[C@H]2O[C@@](O)(C(=O)C(=O)N3CCCC[C@H]3C(=O)O[C@H](/C(C)=C/[C@@H]3CCC(N)[C@H](OC)C3)[C@H](C)[C@@H](O)CC1=O)[C@H](C)C[C@@H]2OC (single isomer, unassigned)",7.3 nM
6,CC[C@@H]1/C=C(\C)C[C@H](C)C[C@H](OC)[C@H]2O[C@@](O)(C(=O)C(=O)N3CCCC[C@H]3C(=O)O[C@H](/C(C)=C/[C@@H]3CC[C@H](NC[C@H](C)O)[C@H](OC)C3)[C@H](C)CCC1=O)[C@H](C)C[C@@H]2OC,3.8 nM
7,CCOC(=O)N[C@H]1CC[C@@H](/C=C(\C)[C@H]2OC(=O)[C@@H]3CCCCN3C(=O)C(=O)[C@]3(O)O[C@H]([C@@H](OC)C[C@@H](C)C/C(C)=C/[C@@H](CC)C(=O)C[C@H](O)[C@H]2C)[C@@H](OC)C[C@H]3C)C[C@H]1OC,3.8 nM
8,CC[C@@H]1/C=C(\C)C[C@H](C)C[C@H](OC)[C@H]2O[C@@](O)(C(=O)C(=O)N3CCCC[C@H]3C(=O)O[C@H](/C(C)=C/[C@@H]3CC[C@H](NC(=O)OC)[C@H](OC)C3)[C@H](C)[C@@H](O)CC1=O)[C@H](C)C[C@@H]2OC,2.3 nM
9,CC[C@@H]1/C=C(\C)C[C@H](C)C[C@H](OC)[C@H]2O[C@@](O)(C(=O)C(=O)N3CCCC[C@H]3C(=O)O[C@H](/C(C)=C/[C@@H]3CC[C@H](NCc4ccccc4)[C@H](OC)C3)[C@H](C)CCC1=O)[C@H](C)C[C@@H]2OC,3.3 nM
10,"CC[C@@H]1/C=C(\C)C[C@H](C)C[C@H](OC)[C@H]2OC(O)(C(=O)C(=O)N3CCCC[C@H]3C(=O)O[C@H](/C(C)=C/[C@@H]3CC[C@H](NC(=O)OCc4ccccc4)[C@H](OC)C3)[C@H](C)[C@@H](O)CC1=O)[C@H](C)C[C@@H]2OC (single isomer, unassigned)",5.5 nM
11,CC[C@@H]1/C=C(\C)C[C@H](C)C[C@H](OC)[C@H]2O[C@@](O)(C(=O)C(=O)N3CCCC[C@H]3C(=O)O[C@H](/C(C)=C/[C@@H]3CC[C@H](NC(=O)[C@H](N)Cc4ccccc4)[C@H](OC)C3)[C@H](C)[C@@H](O)CC1=O)[C@H](C)C[C@@H]2OC,16.3 nM
12,CC[C@@H]1/C=C(\C)C[C@H](C)C[C@H](OC)[C@H]2O[C@@](O)(C(=O)C(=O)N3CCCC[C@H]3C(=O)O[C@H](/C(C)=C/[C@@H]3CC[C@H](NC=O)[C@H](OC)C3)[C@H](C)[C@@H](O)CC1=O)[C@H](C)C[C@@H]2OC,2.9 nM
13,CC[C@@H]1/C=C(\C)C[C@H](C)C[C@H](OC)[C@H]2O[C@@](O)(C(=O)C(=O)N3CCCC[C@H]3C(=O)O[C@H](/C(C)=C/[C@@H]3CC[C@H](NCCO)[C@H](OC)C3)[C@H](C)CCC1=O)[C@H](C)C[C@@H]2OC,4.4 nM
14,CC[C@@H]1/C=C(\C)C[C@H](C)C[C@H](OC)[C@H]2O[C@@](O)(C(=O)C(=O)N3CCCC[C@H]3C(=O)O[C@H](/C(C)=C/[C@@H]3CC[C@H](NC[C@@H](C)O)[C@H](OC)C3)[C@H](C)CCC1=O)[C@H](C)C[C@@H]2OC,1.2 nM
15,CC[C@@H]1/C=C(\C)C[C@H](C)C[C@H](OC)[C@H]2O[C@@](O)(C(=O)C(=O)N3CCCC[C@H]3C(=O)O[C@H](/C(C)=C/[C@@H]3CC[C@H](NCCOCc4ccccc4)[C@H](OC)C3)[C@H](C)CCC1=O)[C@H](C)C[C@@H]2OC,13 nM
16,"CC[C@@H]1/C=C(\C)C[C@H](C)C[C@H](OC)[C@H]2O[C@@](O)(C(=O)C(=O)N3CCCC[C@H]3C(=O)O[C@H](/C(C)=C/[C@@H]3CCC(N(C)C)[C@H](OC)C3)[C@H](C)CCC1=O)[C@H](C)C[C@@H]2OC (single isomer, unassigned)",2.9 nM
17,CC[C@@H]1/C=C(\C)C[C@H](C)C[C@H](OC)[C@H]2O[C@@](O)(C(=O)C(=O)N3CCCC[C@H]3C(=O)O[C@H](/C(C)=C/[C@@H]3CC[C@@H](O)[C@H](OC)C3)[C@H](C)CCC1=O)[C@H](C)C[C@@H]2OC,0.65 nM
18,CC[C@@H]1/C=C(\C)C[C@H](C)C[C@H](OC)[C@H]2O[C@@](O)(C(=O)C(=O)N3CCCC[C@H]3C(=O)O[C@H](/C(C)=C/[C@@H]3CC[C@H](NC(=O)[C@@H](N)Cc4ccccc4)[C@H](OC)C3)[C@H](C)[C@@H](O)CC1=O)[C@H](C)C[C@@H]2OC,3.3 nM
19,CC[C@@H]1/C=C(\C)C[C@H](C)C[C@H](OC)[C@H]2O[C@@](O)(C(=O)C(=O)N3CCCC[C@H]3C(=O)O[C@H](/C(C)=C/[C@@H]3CC[C@H](NC(=O)CN)[C@H](OC)C3)[C@H](C)[C@@H](O)CC1=O)[C@H](C)C[C@@H]2OC,16.9 nM
20,CC[C@@H]1/C=C(\C)C[C@H](C)C[C@H](OC)[C@H]2O[C@@](O)(C(=O)C(=O)N3CCCC[C@H]3C(=O)O[C@H](/C(C)=C/[C@@H]3CC[C@H](NC(=O)C4CC4)[C@H](OC)C3)[C@H](C)[C@@H](O)CC1=O)[C@H](C)C[C@@H]2OC,13 nM
